Results: paper PMC11527162, “Mutational analysis of Phanerochaete chrysosporium´s purine transporter” (PLOS ONE, 2024)

Tests used:
PhZ [1] = target: T1, PhZ (Phanerodontia chrysosporium, UniProt A0A1B2TT73, L124M); assay: competition with [3H]-hypoxanthine uptake in germinating A. nidulans conidia; type: cell-based; details: 0.2 uM [3H]-hypoxanthine, 37 °C
T1 construct: full length, 578 amino acids, from cDNA; C-terminal GFP fusion kept; expressed at the azgA locus of Aspergillus nidulans deltaZAC (azgA, uapA, uapC deleted)

PhZ [2] = target: T2, PhZ (Phanerodontia chrysosporium, UniProt A0A1B2TT73, A418V); assay: as above; type: cell-based; details: 0.2 uM [3H]-hypoxanthine, 37 °C
T2 construct: full length, 578 amino acids, from cDNA; C-terminal GFP fusion kept; expressed at the azgA locus of Aspergillus nidulans deltaZAC (azgA, uapA, uapC deleted)

[3] = substrate: O=c1[nH]cnc2nc[nH]c12; assay: inhibition of [3H]-hypoxanthine uptake by unlabelled hypoxanthine in germinating A. nidulans conidia; type: cell-based, Phanerodontia chrysosporium; details: 0.2 uM [3H]-hypoxanthine, 37 °C, minimal medium with nitrate, Km/i taken as equal to IC50 of unlabelled hypoxanthine
[4] = substrate: O=c1[nH]cnc2nc[nH]c12; assay: as above; type: cell-based, Phanerodontia chrysosporium; details: 0.2 uM [3H]-hypoxanthine, 37 °C, minimal medium with nitrate, Km/i taken as equal to IC50 of unlabelled hypoxanthine; remark: listed apart in the source
Excerpt: inhibition of [3H]-hypoxanthine uptake by unlabelled hypoxanthine in germinating A. nidulans conidia on PhZ | (A) PhZwt; (B-E) L124M, S133T, T392A and A418V mutants respectively.

[5] = substrate: O=c1[nH]cnc2nc[nH]c12; assay: as above; type: cell-based, Phanerodontia chrysosporium; details: 0.2 uM [3H]-hypoxanthine, 37 °C, minimal medium with nitrate, Km/i taken as equal to IC50 of unlabelled hypoxanthine; remark: listed apart in the source
Excerpt: inhibition of [3H]-hypoxanthine uptake by unlabelled hypoxanthine in germinating A. nidulans conidia on PhZ | Dose-response curves for hypoxanthine are shown.

Row | Molecule | % of initial uptake velocity with 1 mM competitor (PhZ [1]) | % of initial uptake velocity with 1 mM competitor (PhZ [2]) | Km [4] [µM] | further results
1 | Nc1nc2[nH]nnc2c(=O)[nH]1 [8-azaguanine] | L124M and S133T, show less [^3H]-hypoxanthine inhibition regarding PhZwt with all purines | the T392A and A418V mutants exhibited higher levels of inhibition | – | –
2 | Nc1ncnc2[nH]cnc12 [adenine] | L124M and S133T, show less [^3H]-hypoxanthine inhibition regarding PhZwt with all purines | the T392A and A418V mutants exhibited higher levels of inhibition | – | –
3 | Nc1nc2[nH]cnc2c(=O)[nH]1 [guanine] | L124M and S133T, show less [^3H]-hypoxanthine inhibition regarding PhZwt with all purines | the T392A and A418V mutants exhibited higher levels of inhibition | – | –
4 | PhZ (Phanerodontia chrysosporium; L124M) (protein, full length, 578 amino acids, from cDNA; C-terminal GFP fusion kept; expressed at the azgA locus of Aspergillus nidulans deltaZAC (azgA, uapA, uapC deleted)) MPIALTHRINAFVADSPVGRWFHLEGSGHPKERVGSRFLTELRAGLTTWAAMAYIISVNASIISDTGGTCVCTQPDLCVNDETYLSCVADVRRDLITSTAAVSALASFLMGLLANLPVGMAPGMGLNAYFTYSVVGFHGSGIITYREALAAVFLEGWFFFFLSLLGLRQWLARIMPQSLVMAVGAGIGLFIAFIGLSGGGLGVIGGDTTNLVGLGGCLPQYYTSPDLPNYCASHVLQSPTMWLGIFVGGVFTVFLMLYRVKGAILIGIFLTSIISWPRPTSVTYFPHTDTGDQAFDFFKQVVTFRPLKRIGNALDYNYSNGRVWYALITFLYVDILDTTGTLYSMAKFAGLRDPVTLDFENSTIAYCVDAFSISMGALMGTSPVTAFIESATGISEGGKTGLTAITTGFAFFISVFFAPIFASIPSWATGGALVIVGSLMIRNVRDINWDYVGDSVPAFLTLIIIPLTYNIAYGVIAGIISFVLINGLAWALRKVSGERFAPPNYDASEPWVIPPGSIVPAWMRFIAGRTGLARDAARERPADADVLEMEQHAHDAASASSLGKHVPAVAEPVTEKDD | – | – | – | Km [3]: 1.6 ± 0.3 µM
5 | PhZ (Phanerodontia chrysosporium; S133T) (protein, full length, 578 amino acids, from cDNA; C-terminal GFP fusion kept; expressed at the azgA locus of Aspergillus nidulans deltaZAC (azgA, uapA, uapC deleted)) MPIALTHRINAFVADSPVGRWFHLEGSGHPKERVGSRFLTELRAGLTTWAAMAYIISVNASIISDTGGTCVCTQPDLCVNDETYLSCVADVRRDLITSTAAVSALASFLMGLLANLPVGMAPGLGLNAYFTYTVVGFHGSGIITYREALAAVFLEGWFFFFLSLLGLRQWLARIMPQSLVMAVGAGIGLFIAFIGLSGGGLGVIGGDTTNLVGLGGCLPQYYTSPDLPNYCASHVLQSPTMWLGIFVGGVFTVFLMLYRVKGAILIGIFLTSIISWPRPTSVTYFPHTDTGDQAFDFFKQVVTFRPLKRIGNALDYNYSNGRVWYALITFLYVDILDTTGTLYSMAKFAGLRDPVTLDFENSTIAYCVDAFSISMGALMGTSPVTAFIESATGISEGGKTGLTAITTGFAFFISVFFAPIFASIPSWATGGALVIVGSLMIRNVRDINWDYVGDSVPAFLTLIIIPLTYNIAYGVIAGIISFVLINGLAWALRKVSGERFAPPNYDASEPWVIPPGSIVPAWMRFIAGRTGLARDAARERPADADVLEMEQHAHDAASASSLGKHVPAVAEPVTEKDD | – | – | 2.1 ± 0.4 | –
6 | PhZ (Phanerodontia chrysosporium; T392A) (protein, full length, 578 amino acids, from cDNA; C-terminal GFP fusion kept; expressed at the azgA locus of Aspergillus nidulans deltaZAC (azgA, uapA, uapC deleted)) MPIALTHRINAFVADSPVGRWFHLEGSGHPKERVGSRFLTELRAGLTTWAAMAYIISVNASIISDTGGTCVCTQPDLCVNDETYLSCVADVRRDLITSTAAVSALASFLMGLLANLPVGMAPGLGLNAYFTYSVVGFHGSGIITYREALAAVFLEGWFFFFLSLLGLRQWLARIMPQSLVMAVGAGIGLFIAFIGLSGGGLGVIGGDTTNLVGLGGCLPQYYTSPDLPNYCASHVLQSPTMWLGIFVGGVFTVFLMLYRVKGAILIGIFLTSIISWPRPTSVTYFPHTDTGDQAFDFFKQVVTFRPLKRIGNALDYNYSNGRVWYALITFLYVDILDTTGTLYSMAKFAGLRDPVTLDFENSTIAYCVDAFSISMGALMGTSPVTAFIESAAGISEGGKTGLTAITTGFAFFISVFFAPIFASIPSWATGGALVIVGSLMIRNVRDINWDYVGDSVPAFLTLIIIPLTYNIAYGVIAGIISFVLINGLAWALRKVSGERFAPPNYDASEPWVIPPGSIVPAWMRFIAGRTGLARDAARERPADADVLEMEQHAHDAASASSLGKHVPAVAEPVTEKDD | – | – | 2.3 ± 0.3 | –
7 | PhZ (Phanerodontia chrysosporium) (protein, full length, 578 amino acids, from cDNA; C-terminal GFP fusion kept; expressed at the azgA locus of Aspergillus nidulans deltaZAC (azgA, uapA, uapC deleted)) MPIALTHRINAFVADSPVGRWFHLEGSGHPKERVGSRFLTELRAGLTTWAAMAYIISVNASIISDTGGTCVCTQPDLCVNDETYLSCVADVRRDLITSTAAVSALASFLMGLLANLPVGMAPGLGLNAYFTYSVVGFHGSGIITYREALAAVFLEGWFFFFLSLLGLRQWLARIMPQSLVMAVGAGIGLFIAFIGLSGGGLGVIGGDTTNLVGLGGCLPQYYTSPDLPNYCASHVLQSPTMWLGIFVGGVFTVFLMLYRVKGAILIGIFLTSIISWPRPTSVTYFPHTDTGDQAFDFFKQVVTFRPLKRIGNALDYNYSNGRVWYALITFLYVDILDTTGTLYSMAKFAGLRDPVTLDFENSTIAYCVDAFSISMGALMGTSPVTAFIESATGISEGGKTGLTAITTGFAFFISVFFAPIFASIPSWATGGALVIVGSLMIRNVRDINWDYVGDSVPAFLTLIIIPLTYNIAYGVIAGIISFVLINGLAWALRKVSGERFAPPNYDASEPWVIPPGSIVPAWMRFIAGRTGLARDAARERPADADVLEMEQHAHDAASASSLGKHVPAVAEPVTEKDD | – | – | – | Km [5]: 2.7 ± 0.2 µM
8 | PhZ (Phanerodontia chrysosporium; A418V) (protein, full length, 578 amino acids, from cDNA; C-terminal GFP fusion kept; expressed at the azgA locus of Aspergillus nidulans deltaZAC (azgA, uapA, uapC deleted)) MPIALTHRINAFVADSPVGRWFHLEGSGHPKERVGSRFLTELRAGLTTWAAMAYIISVNASIISDTGGTCVCTQPDLCVNDETYLSCVADVRRDLITSTAAVSALASFLMGLLANLPVGMAPGLGLNAYFTYSVVGFHGSGIITYREALAAVFLEGWFFFFLSLLGLRQWLARIMPQSLVMAVGAGIGLFIAFIGLSGGGLGVIGGDTTNLVGLGGCLPQYYTSPDLPNYCASHVLQSPTMWLGIFVGGVFTVFLMLYRVKGAILIGIFLTSIISWPRPTSVTYFPHTDTGDQAFDFFKQVVTFRPLKRIGNALDYNYSNGRVWYALITFLYVDILDTTGTLYSMAKFAGLRDPVTLDFENSTIAYCVDAFSISMGALMGTSPVTAFIESATGISEGGKTGLTAITTGFAFFISVFFVPIFASIPSWATGGALVIVGSLMIRNVRDINWDYVGDSVPAFLTLIIIPLTYNIAYGVIAGIISFVLINGLAWALRKVSGERFAPPNYDASEPWVIPPGSIVPAWMRFIAGRTGLARDAARERPADADVLEMEQHAHDAASASSLGKHVPAVAEPVTEKDD | – | – | 2.8 ± 0.4 | –
